The text below walks through data of ChEMBL document CHEMBL1155363, “4,4-Disubstituted cyclohexylamine based CCR5 chemokine receptor antagonists as anti-HIV-1 agents” (Bioorg Med Chem Lett, 2009).

As a reminder, the IC50 is the concentration that gives 50% inhibition.

This assay relates to Human immunodeficiency virus 1. Description: Antiviral activity against HIV1 Ba-L infected in HOS cells assessed as inhibition of viral infection. It is filed as functional, organism-based. To be noted: Human immunodeficiency virus 1, Ba-L.

Bounds are passed on as bounds.

With `Cc1nc2ccccc2n1[C@H]1C[C@H]2CC[C@@H](C1)N2CC[C@]1(c2ccccc2)CC[C@H](NC(=O)c2ccc(F)c(S(N)(=O)=O)c2)CC1`, the IC50 was determined as 480 nM.

On to `Cc1nc2ccccc2n1[C@H]1C[C@H]2CC[C@@H](C1)N2CC[C@]1(c2ccccc2)CC[C@H](NC(=O)c2ccc(S(N)(=O)=O)cc2F)CC1`, for which the IC50 amounted to 1800 nM.

Regarding `Cc1nc2ccccc2n1[C@H]1C[C@H]2CC[C@@H](C1)N2CC[C@]1(c2ccccc2)CC[C@H](NC(=O)c2ccc(S(N)(=O)=O)cc2Cl)CC1`, the half-maximal inhibitory concentration (IC50) worked out at 230 nM.

`Cc1nc2ccccc2n1[C@H]1C[C@H]2CC[C@@H](C1)N2CCC[C@]1(c2ccccc2)CC[C@H](NC(=O)c2ccc(Cl)c(S(N)(=O)=O)c2)CC1`: the IC50 was 380 nM.

With `Cc1nc2ccccc2n1[C@H]1C[C@H]2CC[C@@H](C1)N2CC[C@]1(c2ccccc2)CC[C@H](NC(=O)c2ccc(Cl)c(S(N)(=O)=O)c2)CC1`, the half-maximal inhibitory concentration (IC50) turned out to be 58 nM.

Take `CNS(=O)(=O)c1cc(Cl)c(C(=O)N[C@H]2CC[C@](CCN3[C@@H]4CC[C@H]3C[C@@H](n3c(C)nc5ccccc53)C4)(c3ccccc3)CC2)cc1F`: the IC50 turned out to be 510 nM.

For `Cc1ccc(S(N)(=O)=O)c(C)c1C(=O)N[C@H]1CC[C@@](CCN2[C@@H]3CC[C@H]2C[C@@H](n2c(C)nc4ccccc42)C3)(c2ccccc2)CC1`, the IC50 was 2550 nM.

Take `CNS(=O)(=O)c1cc(C(=O)N[C@H]2CC[C@@H](CN3[C@@H]4CC[C@H]3C[C@@H](n3c(C)nc5ccccc53)C4)CC2)c(Cl)cc1F`: the IC50 is above 20000 nM.

Take `Cc1nc2ccccc2n1[C@H]1C[C@H]2CC[C@@H](C1)N2[C@]1(C)CC[C@H](NC(=O)c2c(Cl)ccc(S(N)(=O)=O)c2Cl)CC1`: the IC50 was 20000 nM.

As for `Cc1nc2ccccc2n1[C@H]1C[C@H]2CC[C@@H](C1)N2C[C@H]1CC[C@@H](NC(=O)c2ccc(Cl)c(S(N)(=O)=O)c2)CC1`, the IC50 is above 20000 nM.

For `Cc1nc2ccccc2n1[C@H]1C[C@H]2CC[C@@H](C1)N2[C@]1(C)CC[C@H](NC(=O)c2ccc(Cl)c(S(N)(=O)=O)c2)CC1`, the IC50 was 870 nM.

Consider `Cc1nc2ccccc2n1[C@H]1C[C@H]2CC[C@@H](C1)N2CC[C@]1(c2ccccc2)CC[C@H](NC(=O)c2cc(NS(C)(=O)=O)c(Cl)cc2F)CC1`, for which the IC50 amounted to 1480 nM.

Take `Cc1nc2ccccc2n1[C@H]1C[C@H]2CC[C@@H](C1)N2CC[C@]1(c2ccccc2)CC[C@@H](NC(=O)c2ccc(Cl)c(S(N)(=O)=O)c2)CC1`: the concentration for half-maximal inhibition (IC50) is 1630 nM.

Regarding `Cc1ccnc(C)c1C(=O)N[C@H]1CC[C@](CCCN2[C@@H]3CC[C@H]2C[C@@H](n2c(C)nc4ccccc42)C3)(c2ccccc2)CC1`, the IC50 turned out to be 2190 nM.

Turning to `Cc1ccc(S(N)(=O)=O)c(C)c1C(=O)N[C@H]1CC[C@](CCN2[C@@H]3CC[C@H]2C[C@@H](n2c(C)nc4ccccc42)C3)(c2ccccc2)CC1`, the IC50 worked out at 1070 nM.

Take `Cc1nc2ccccc2n1[C@H]1C[C@H]2CC[C@@H](C1)N2CC[C@]1(c2ccccc2)CC[C@H](NC(=O)c2cc(S(=O)(=O)NC(C)C)c(Cl)cc2F)CC1`: the IC50 amounted to 590 nM.
